Results: ChEMBL document CHEMBL2074301, “Effect of endotoxin on doxorubicin transport across blood-brain barrier and P-glycoprotein function in mice” (Eur J Pharmacol, 2002)

Target: ATP-dependent translocase ABCB1 (Mus musculus, UniProt P21447)
Assay: TP_TRANSPORTER: Western in vivo, brain of ddY mouse
Type: functional, organism-based

ATP-dependent translocase ABCB1, sequence (P21447 whole entry): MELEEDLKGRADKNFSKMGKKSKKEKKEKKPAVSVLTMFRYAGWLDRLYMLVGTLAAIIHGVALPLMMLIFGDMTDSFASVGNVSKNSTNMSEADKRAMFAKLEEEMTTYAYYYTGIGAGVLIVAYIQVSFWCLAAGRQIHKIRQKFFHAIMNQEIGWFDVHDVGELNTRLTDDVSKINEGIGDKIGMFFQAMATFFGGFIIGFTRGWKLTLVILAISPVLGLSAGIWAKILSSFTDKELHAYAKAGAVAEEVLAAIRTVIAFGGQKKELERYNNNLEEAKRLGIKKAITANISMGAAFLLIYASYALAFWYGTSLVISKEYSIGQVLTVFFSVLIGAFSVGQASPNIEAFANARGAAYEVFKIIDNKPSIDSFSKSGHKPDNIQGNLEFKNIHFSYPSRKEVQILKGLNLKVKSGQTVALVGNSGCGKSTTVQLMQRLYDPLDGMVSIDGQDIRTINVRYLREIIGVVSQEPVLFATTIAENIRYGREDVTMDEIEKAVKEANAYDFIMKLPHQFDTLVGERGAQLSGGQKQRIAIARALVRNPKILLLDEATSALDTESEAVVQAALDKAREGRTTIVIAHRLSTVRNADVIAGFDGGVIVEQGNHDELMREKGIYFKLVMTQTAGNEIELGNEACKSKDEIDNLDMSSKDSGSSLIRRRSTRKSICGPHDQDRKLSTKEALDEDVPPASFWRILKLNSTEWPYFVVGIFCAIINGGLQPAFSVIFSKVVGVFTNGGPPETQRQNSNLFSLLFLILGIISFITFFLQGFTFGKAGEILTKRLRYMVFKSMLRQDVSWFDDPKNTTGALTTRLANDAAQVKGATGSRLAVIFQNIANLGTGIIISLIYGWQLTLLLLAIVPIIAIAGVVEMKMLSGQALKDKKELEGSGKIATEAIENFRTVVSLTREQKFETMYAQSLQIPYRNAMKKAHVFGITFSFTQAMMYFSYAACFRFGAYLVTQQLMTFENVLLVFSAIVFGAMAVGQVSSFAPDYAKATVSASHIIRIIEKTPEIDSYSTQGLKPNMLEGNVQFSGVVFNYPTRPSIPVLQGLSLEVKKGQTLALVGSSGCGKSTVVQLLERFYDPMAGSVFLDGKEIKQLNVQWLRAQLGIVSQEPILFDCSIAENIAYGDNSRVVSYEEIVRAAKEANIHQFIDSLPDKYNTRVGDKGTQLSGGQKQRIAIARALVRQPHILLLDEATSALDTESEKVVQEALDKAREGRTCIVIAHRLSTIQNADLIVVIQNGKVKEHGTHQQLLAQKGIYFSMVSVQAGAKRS

- Activity: inducer [Decrease]
SMILES: CCCCCCCCCCCCCC(=O)OC(CCCCCCCCCCC)CC(=O)OC1C(NC(=O)CC(CCCCCCCCCCC)OC(=O)CCCCCCCCCCC)C(OC2CC(OC(=O)CC(O)CCCCCCCCCCC)C(NC(=O)CC(O)CCCCCCCCCCC)C(O)O2)OC(CO)C1OP(=O)(O)O (stereo unspecified)
